The source of these data is patent US9931329B2, “Phenyl triazole derivative and its use for modulating the GABAA receptor complex” (SANIONA A/S, priority 2012, dated 2018).

Data set [1] has as its target T1, human GABAA α5β3*γ2S receptor (Homo sapiens, UniProt P18507+P31644).
T1 construct: expressed in transfected cells
As to the kind of experiment: In vitro inhibition of 3H-flumazenil binding, HEK cells expressing human GABAA α5β3*γ2S receptor. As for the experimental part: When the cultures reach confluency, the DMEM is removed and the cells are washed (10 ml for T175 flasks; 50 ml for roller bottles) once in Dulbecco's Phosphate Buffered Saline (DPBS). Following addition of DPBS to the cultures (10 ml for T175 flasks; 100 ml for roller bottles) for approximately 5 min cells are easily detached from the surface by shaking or tapping the flask gently. The cell suspension is transferred to Falcon tubes and centrifuged at 23,500×g for 10 min at 2° C. The pellet is washed once in 15 ml Tris-citrate buffer (50 mM, pH 7.1) using an Ultra-Turrax homogenizer and centrifuged at 2° C. for 10 min at 27,000×g. The washed pellet is re-suspended in 15 ml Tris-citrate buffer and frozen at −80° C. until the day of the binding experiment.
On the day of the experiment the cell membrane preparation is thawed and centrifuged at 2° C. for 10 min at 27,000×g.
Non-specific binding is determined using clonazepam (1 μM, final concentration). […]
The amount of radioactivity on the filters is determined by conventional liquid scintillation counting using a […]
where B is the binding in percentage of total specific binding; C is the concentration of test compound; and n is the Hill coefficient. […] The IC50 value is calculated from the concentration response curves by the non-linear regression method using the curve-fitting program GraphPad Prism.

pKi: −log10 of the molar value.

T1 sequence (P31644 32-462): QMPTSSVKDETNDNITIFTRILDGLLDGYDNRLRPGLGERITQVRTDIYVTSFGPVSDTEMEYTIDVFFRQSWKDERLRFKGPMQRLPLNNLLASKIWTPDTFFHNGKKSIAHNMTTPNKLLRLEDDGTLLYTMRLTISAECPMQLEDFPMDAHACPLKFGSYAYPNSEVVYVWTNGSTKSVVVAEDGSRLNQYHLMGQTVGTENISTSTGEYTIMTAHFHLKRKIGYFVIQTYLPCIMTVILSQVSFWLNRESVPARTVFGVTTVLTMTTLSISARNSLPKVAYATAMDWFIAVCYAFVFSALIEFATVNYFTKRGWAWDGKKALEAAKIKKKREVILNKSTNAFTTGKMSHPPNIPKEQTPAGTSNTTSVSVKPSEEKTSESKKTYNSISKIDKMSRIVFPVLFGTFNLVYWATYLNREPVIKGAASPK
T1 sequence (P18507 40-467 isoform P18507-1 limits assumed): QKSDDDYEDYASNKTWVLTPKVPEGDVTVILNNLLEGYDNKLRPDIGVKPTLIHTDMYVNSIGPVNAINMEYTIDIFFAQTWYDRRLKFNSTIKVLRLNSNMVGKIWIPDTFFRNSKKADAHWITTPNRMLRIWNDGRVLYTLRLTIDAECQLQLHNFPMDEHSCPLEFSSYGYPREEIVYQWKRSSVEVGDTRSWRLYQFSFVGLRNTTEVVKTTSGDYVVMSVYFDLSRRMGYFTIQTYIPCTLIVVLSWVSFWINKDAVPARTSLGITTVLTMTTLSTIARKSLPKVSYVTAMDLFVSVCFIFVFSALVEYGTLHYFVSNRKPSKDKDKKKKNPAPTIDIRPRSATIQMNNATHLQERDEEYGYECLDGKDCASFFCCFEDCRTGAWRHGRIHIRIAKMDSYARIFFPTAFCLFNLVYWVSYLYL

Compound `Cn1nnc(-c2ccccc2F)c1COc1ccc(-n2cnc(C#N)c2)cn1` [Compound 7, 1-{6-[5-(2-Fluoro-phenyl)-3-methyl-3H-[1,2,3]triazol-4-ylmethoxy]-pyridin-3-yl}-1H-imidazole-4-carbonitrile] displayed a melting point of 178 to 181.5 °C. In data set [1], this compound gave a pKi of 7.70.

By melting point is commonly meant the temperature, or range, at which the solid turns liquid. The pKi is the negative decadic logarithm of the Ki, by convention in mol/L.
